According to PMC7897990, “TriTOX: A novel Trichomonas vaginalis assay platform for high-throughput screening of compound libraries” (International Journal for Parasitology: Drugs and Drug …, 2021):
Read-outs that look alike come from different tables or passages of the source. Starred links: 1 amine or outer side, 2 acyl side, 3 side chain; linkers in the order of their positions; H or OH if unused. Positions of bridges follow the written chain, without caps; N, C: chain ends. Non-standard residues stand in square brackets, D forms with d. Residues, ends and D or L forms follow the SMILES beside them. *: point of attachment. Orn(4R-OH,5R-OH) = O=C([C@H](C[C@@H](O)[C@@H](O)N[*:3])N[*:1])[*:2]; Tetradecanoyl(10R,12S-Me2) = CC[C@H](C)C[C@H](C)CCCCCCCCC(=O)*; hTyr(3S-OH,4S-OH) = N[C@H](C(=O)O)[C@H](O)[C@@H](O)c1ccc(O)cc1; Gln(3R-OH) = NC(=O)C[C@@H](O)[C@H](N)C(=O)O; Pro(3S-OH) = O=C(O)[C@H]1NCC[C@@H]1O; Hyp = O=C(O)[C@@H]1C[C@@H](O)CN1

System: Trichomonas vaginalis G3 trophozoites
Details: for T.vaginalis_Absorbance_Rep1: replicate 1, raw absorbance; for T.vaginalis_Absorbance_Rep2: replicate 2, raw absorbance
[1] = HTS, parasite screen at 1 µg/mL, replicate 1
[2] = HTS, parasite screen at 1 µg/mL
[3] = HTS, parasite screen at 1 µg/mL, replicate 2
[4] = HTS replicate 1, parasite screen 1 µg/mL
[5] = HTS replicate 2, parasite screen 1 µg/mL

SMILES	T.vaginalis_%inb_Rep1 [1] [%]	T.vaginalis_Absorbance_Rep1 [2]	T.vaginalis_%inb_Rep2 [3] [%]	T.vaginalis_Absorbance_Rep2 [2]	T.vaginalis_%inb_Rep1 [4] [%]	T.vaginalis_%inb_Rep2 [5] [%]	T. vaginalis HTS result in words (384-well, 25 μL, 10,000 cells/mL, 48 h, biological duplicates, hit = >50% inhibition)
CC(=O)OC1CCC2(C)C3=C(CCC2C1(C)C)C1(C)CCC(C(C)CCC=C(C)C)C1(C)CC3 (stereo not shown) [Euphol acetate]	13.30	0.956	13.02	0.8			
CCCN1C[C@H](C)[C@@H](O)[C@](C)(O)[C@@H](CC)OC(=O)[C@H](C)[C@@H](O[C@H]2C[C@@](C)(OC)[C@@H](O)[C@H](C)O2)[C@H](C)[C@@H](O[C@@H]2O[C@H](C)C[C@H](N(C)C)[C@H]2O)[C@](C)(O)C[C@H]1C [Gamithromycin]	5.73	0.815	7.95	0.759			
CCC1OC2(CCC1C)CC1CC(CC=C(C)CC(C)C=CC=C3COC4C(O)C(C)=CC(C(=O)O1)C34O)O2 (stereo not shown) [Milbemycin A4]					12.17	12.96	
CC1(C)CCC[C@]2(C)[C@@H](CO)C(CO)=CC[C@@H]12 [Drimendiol]	13.84	0.966	11.64	0.781			
CC1=C[C@H]2C(=O)O[C@H]3C[C@@H](C/C=C(\C)C[C@@H](C)/C=C/C=C4\CO[C@H]([C@@H]1O)[C@@]42O)O[C@@]1(CC[C@H](C)[C@@H](C)O1)C3 [Milbemycin A3]					11.05	8.85	
C[C@@H]1[C@H](O)[C@@H](C)/C=C/C=C/CC/C=C/C=C/C=C/C=C/[C@H](O[C@@H]2O[C@H](C)[C@@H](O)[C@H](N)[C@@H]2O)C[C@@H]2O[C@](O)(C[C@@H](O)[C@H](O)CC[C@@H](O)C[C@@H](O)C[C@@H](O)CC(=O)O[C@H]1C)C[C@H](O)[C@H]2C(=O)O [Nystatin A1]					11.66	11.87	
CC1(C)CC[C@]2(C)CC[C@]3(C)C4=CC[C@H]5C(C)(C)[C@@H](O)CC[C@]5(C)[C@H]4CC[C@@]3(C)[C@@H]2C1 [Multiflorenol]					10.55	11.42	
CO[C@H]1C[C@H](O[C@H]2[C@H](C)O[C@@H](O[C@@H]3/C(C)=C/C[C@@H]4C[C@@H](C[C@]5(C=C[C@H](C)[C@@H](C6CCCCC6)O5)O4)OC(=O)[C@@H]4C=C(C)[C@@H](O)[C@H]5OC/C(=C\C=C\[C@@H]3C)[C@]54O)C[C@@H]2OC)O[C@@H](C)[C@@H]1O [Doramectin]	11.20	0.917	11.21	0.775			
COc1cc(CC2C(=O)OCC2Cc2ccc3c(c2)OCO3)ccc1O (stereo not shown) [Pluviatolide]					12.12	14.37	
CC[C@H](C)C[C@H](C)CCCCCCCCC(=O)N[C@H]1C[C@@H](O)[C@@H](O)NC(=O)[C@@H]2[C@@H](O)CCN2C(=O)[C@H]([C@H](O)CC(N)=O)NC(=O)[C@H]([C@H](O)[C@@H](O)c2ccc(O)cc2)NC(=O)[C@@H]2C[C@@H](O)CN2C(=O)[C@H]([C@@H](C)O)NC1=O [Pneumocandin B0] ({Tetradecanoyl(10R,12S-Me2)}-[Orn(4R-OH,5R-OH)]T[Hyp][hTyr(3S-OH,4S-OH)][Gln(3R-OH)][Pro(3S-OH)]; lactam 1-C)					10.50	8.92	
CCC(O)C(C)(O)C1OC(=O)C(C)C(OC2CC(C)(OC)C(O)C(C)O2)C(C)C(OC2OC(C)CC(N(C)C)C2O)C2(C)CC(C)=C(O2)C1C (stereo not shown) [Pseudoerythromycin A enol ether]					13.84	5.58	
COC1C(OC(N)=O)C(O)C(Oc2ccc3c(O)c(NC(=O)c4ccc(O)c(CCC(C)C)c4)c(=O)oc3c2C)OC1(C)C (stereo not shown) [Dihydronovobiocin]	2.80	0.761	4.84	0.687			
O=C(O)c1c(=O)cccc2ssc12 [tropodithietic acid, reference compound]	11.01		97.50				partial hits
CCCNC[C@]1(O)[C@H](C)O[C@@H](O[C@H]2[C@H](C)[C@@H](O[C@@H]3O[C@H](C)C[C@H](N(C)C)[C@H]3O)[C@](C)(O)C[C@@H](C)CN[C@H](C)[C@@H](O)[C@](C)(O)[C@@H](CC)OC(=O)[C@@H]2C)C[C@@]1(C)OC [Tulathromycin]	10.12		14.75				
CO[C@H]1C[C@H](O[C@H]2[C@H](C)O[C@@H](O[C@@H]3/C(C)=C/C[C@@H]4C[C@@H](C[C@]5(C=C[C@H](C)[C@@H](C6CCCCC6)O5)O4)OC(=O)[C@H]4C=C(C)[C@@H](O)[C@H]5OC/C(=C\C=C\[C@@H]3C)[C@@]45O)C[C@@H]2OC)O[C@@H](C)[C@@H]1O [Doramectin, epi-]	16.13	1.02	15.52	0.877			
Cc1c2c(c(O)c3c(O)cccc13)C(=O)C1(O)C(O)=C(C(N)=O)C(=O)C(N(C)C)C1C2.Cl (stereo not shown) [Epianhydrotetracycline hydrochloride]	8.78	0.872	1.74	0.644			
C/C=C\C=C\[C@@H]1O[C@](O)([C@H](CO[C@H]2C[C@@H](OC)[C@@H](O[C@@H]3C[C@@H](OC)[C@@H](O[C@H]4C[C@H](OC)[C@H](O)[C@H](C)O4)[C@H](C)O3)[C@@H](C)O2)C(=O)NC/C=C/C=C(\C)[C@@H](OC)[C@H](C)[C@H]2C[C@H](O)[C@H](/C=C/C=C/C=C/C(=O)O)O2)[C@H](OC(=O)Cc2ccccc2)[C@H](O)C1(C)C [Phenelfamycin E]					11.16	10.07	
